Patent US4572908A, “Dihydropyridines” (Pfizer Inc., priority 1982, dated 1986)

These molecules were tested on rat aorta (assay: inhibition of calcium-induced contraction (change in tension) of spirally cut strips of rat aorta in K+ 45 mM saline). Details: 0.75 h, 45 millimolar potassium, 2 millimolar calcium, 45 minutes, read-out: IC50 (molar concentration required to reduce the response by 50%).
Type: cell-based
Method: The ability of the compounds to inhibit the movement of calcium into the cell is shown by their effectiveness in reducing the response of isolated heart tissue to an increase in calcium ion concentration in vitro. The test is performed by mounting spirally cut strips of rat aorta with one end fixed and the other attached to a force transducer. The tissue is immersed in a bath of physiological saline solution containing potassium ions at a concentration of 45 millimolar and no calcium. Calcium chloride is added to the bath with a pipette to give a final calcium ion concentration of 2 millimolar. The change in tension caused by the resulting contraction of the tissue is noted. The bath is drained and replaced with fresh saline solution and, after 45 minutes, the test is repeated with the particular compound under test present in the saline solution. The concentration of compound required to reduce the response by 50% (IC50) is recorded.
The molar concentrations of the compounds required to reduce the response by 50% in the test specified on pages 16-17 are given below (1M=1 gm.Mole/liter).
`CCOC(=O)C1=C(COCCNc2nccnc2NC)NC(C)=C(C(=O)OC)C1c1cccc(Cl)c1Cl` (stereo not shown) [Example 84] was tested, and the IC50 was 5.01 nM. For `CCOC(=O)C1=C(COCCNc2nnc(N)[nH]2)NC(C)=C(C(=O)OC)C1c1cccc(Cl)c1Cl` (stereo not shown) [Example 3B], the IC50 was 6.02 nM. Molecule `CCOC(=O)C1=C(COCCNc2ccnc(N)n2)NC(C)=C(C(=O)OC)C1c1ccccc1Cl` (stereo not shown) [Example 13] has an IC50 of 6.3 nM. Molecule `CCOC(=O)C1=C(COCCNC2=NC(C)(C)C(=O)N2)NC(C)=C(C(=O)OC)C1c1cccc(Cl)c1Cl` (stereo not shown) [Example 38] has an IC50 of 25.1 nM. `CCOC(=O)C1=C(COCCNc2nccc(C(N)=O)n2)NC(C)=C(C(=O)OC)C1c1ccccc1Cl` (stereo not shown) [Example 29] gave an IC50 of 18.1 nM. In the case of `CCOC(=O)C1=C(COCCNc2nc(N)n[nH]2)NC(C)=C(C(=O)OC)C1c1cccc(C(F)(F)F)c1Cl` (stereo not shown) [Example 2, 2-[2-(3-Amino-1H-1,2,4-triazol-5-ylamino)ethoxymethyl]-4-(2-chloro-3-trifluoromethylphenyl)-3-ethoxycarbonyl-5-methoxycarbonyl-6-methyl-1,4-dihydropyridine], the IC50 is reported as 2.29 nM. `CCOC(=O)C1=C(COCCNc2cc(OC)ncn2)NC(C)=C(C(=O)OC)C1c1cccc(Cl)c1Cl` (stereo not shown) [Example 54] showed an IC50 of 1.2 nM. `CCOC(=O)C1=C(COCCNc2ccncn2)NC(C)=C(C(=O)OC)C1c1ccccc1Cl` (stereo not shown) [Example 10] was tested, and the IC50 was 1.9 nM. `CCOC(=O)C1=C(COCCNc2noc(N)n2)NC(C)=C(C(=O)OC)C1c1ccccc1Cl` (stereo not shown) [Example 6, 2-[2-(5-Amino-1,2,4-oxadiazol-3-ylamino)ethoxymethyl]-4-(2-chlorophenyl)-3-ethoxycarbonyl-5-methoxycarbonyl-6-methyl-1,4-dihydropyridine] showed an IC50 of 11.5 nM. With `CCOC(=O)C1=C(COCCNc2n[s+]([O-])nc2OC)NC(C)=C(C(=O)OC)C1c1cccc(C(F)(F)F)c1Cl` (stereo not shown) [Example 66] the IC50 was 2.24 nM. In the case of `CCOC(=O)C1=C(COCCNc2cc(N3CCOCC3)ncn2)NC(C)=C(C(=O)OC)C1c1cccc(C(F)(F)F)c1Cl` (stereo not shown) [Example 88, 4-(2-Chloro-3-trifluoromethylphenyl)-3-ethoxycarbonyl-5-methoxycarbonyl-6-methyl-[2-(6-morpholino-pyrimidin-4-ylamino)ethoxymethyl]-1,4-dihydropyridin], the IC50 is reported as 0.126 nM. Work on `CCOC(=O)C1=C(COCCNC2=NCCS2)NC(C)=C(C(=O)OC)C1c1ccccc1Cl` (stereo not shown) [Example 70, 4-(2-Chlorophenyl)-3-ethoxycarbonyl-5-methoxycarbonyl-6-methyl-2-[2-(2-thiazolin-2-ylamino)ethoxymethyl]-1,4-dihydropyridine] yielded an IC50 of 9.33 nM. `CCOC(=O)C1=C(COCCNc2ccnc(Cl)n2)NC(C)=C(C(=O)OC)C1c1ccccc1Cl` (stereo not shown) [Example 18] showed an IC50 of 31.6 nM. `CCOC(=O)C1=C(COCCNc2cc[nH]c(=O)n2)NC(C)=C(C(=O)OC)C1c1ccccc1Cl` (stereo not shown) [Example 12] gave an IC50 of 28.8 nM. With `CCOC(=O)C1=C(COCCNc2cncc(Cl)n2)NC(C)=C(C(=O)OC)C1c1cccc(Cl)c1Cl` (stereo not shown) [Example 52] the IC50 was 6.02 nM. `CCOC(=O)C1=C(COCCNc2ccc(C(N)=O)cn2)NC(C)=C(C(=O)OC)C1c1cccc(C(F)(F)F)c1Cl` (stereo not shown) [Example 63] showed an IC50 of 2.95 nM. With `CCOC(=O)C1=C(COCCNc2nccc(=O)[nH]2)NC(C)=C(C(=O)OC)C1c1ccccc1Cl` (stereo not shown) [Example 8, 4-(2-Chlorophenyl)-3-ethoxycarbonyl-5-methoxycarbonyl-6-methyl-2-[2-(3,4-dihydro-4-oxo-pyrimidin-2-ylamino)ethoxymethyl]-1,4-dihydropyridine] the IC50 was 10.5 nM. Work on `CCOC(=O)C1=C(COCCNc2nc(C)cc(=O)[nH]2)NC(C)=C(C(=O)OC)C1c1cccc(C(F)(F)F)c1Cl` (stereo not shown) [Example 61] yielded an IC50 of 2.24 nM. Work on `CCOC(=O)C1=C(COCCNc2cc(Cl)ncn2)NC(C)=C(C(=O)OC)C1c1ccccc1Cl` (stereo not shown) [Example 31] yielded an IC50 of 17.7 nM. In the case of `CCOC(=O)C1=C(COCCNc2ncnc3[nH]cnc23)NC(C)=C(C(=O)OC)C1c1ccccc1Cl` (stereo not shown) [Example 16], the IC50 is reported as 100 nM. For `CCOC(=O)C1=C(COCCNc2cc(N3CCOCC3)ncn2)NC(C)=C(C(=O)OC)C1c1cccc(Cl)c1Cl` (stereo not shown) [Example 80, 4-(2,3-Dichlorophenyl)-3-ethoxycarbonyl-5-methoxycarbonyl-6-methyl-[2-(6-morpholinopyrimidin-4-ylamino)ethoxymethyl]-1,4-dihydropyridine], the IC50 was 1.34 nM. In the case of `CCOC(=O)C1=C(COCCNc2cc(=O)[nH]cn2)NC(C)=C(C(=O)OC)C1c1ccccc1Cl` (stereo not shown) [Example 14], the IC50 is reported as 10 nM. Molecule `CCOC(=O)C1=C(COCCNc2cc(Cl)ncn2)NC(C)=C(C(=O)OC)C1c1cccc(Cl)c1Cl` (stereo not shown) [Example 53] has an IC50 of 3160 nM. For `CCOC(=O)C1=C(COCCNc2ccc(S(=O)(=O)N3CCCCC3)cn2)NC(C)=C(C(=O)OC)C1c1cccc(Cl)c1Cl` (stereo not shown) [Example 46], the IC50 was 3.01 nM. For `CCOC(=O)C1=C(COCCNc2nc(N)nc(N)n2)NC(C)=C(C(=O)OC)C1c1ccccc1Cl` (stereo not shown) [Example 11], the IC50 was 426 nM. Work on `CCOC(=O)C1=C(COCCNc2nc(C(=O)NC)cs2)NC(C)=C(C(=O)OC)C1c1ccccc1Cl` (stereo not shown) [Example 77, 4-(2-Chlorophenyl)-3-ethoxycarbonyl-5-methoxycarbonyl-6-methyl-2-[2-(4-[N-methylcarbamoyl]-thiazol-2-ylamino)ethoxymethyl]-1,4-dihydropyridine] yielded an IC50 of 5.37 nM. Work on `CCOC(=O)C1=C(COCCNc2nc3ccccc3nc2Cl)NC(C)=C(C(=O)OC)C1c1cccc(Cl)c1Cl` (stereo not shown) [Example 49] yielded an IC50 of 3.98 nM. With `CCOC(=O)C1=C(COCCNc2nccc(N)n2)NC(C)=C(C(=O)OC)C1c1ccccc1Cl` (stereo not shown) [Example 27] the IC50 was 3.98 nM. `CCOC(=O)C1=C(COCCNC2=NCCC2)NC(C)=C(C(=O)OC)C1c1ccccc1Cl` (stereo not shown) [Example 20] gave an IC50 of 100 nM. In the case of `CCOC(=O)C1=C(COCCNc2cc(=O)n(C)cn2)NC(C)=C(C(=O)OC)C1c1ccccc1Cl` (stereo not shown) [Example 30], the IC50 is reported as 2.34 nM. With `CCOC(=O)C1=C(COCCNc2nc(N)n[nH]2)NC(C)=C(C(=O)OC)C1c1ccccc1Cl` (stereo not shown) [Example 1B, 2-[2-(3-Amino-1H-1,2,4-triazol-5-ylamino)ethoxymethyl]-4-(2-chlorophenyl)-3-ethoxycarbonyl-5-methoxycarbonyl-6-methyl-1,4-dihydropyridine] the IC50 was 20 nM. `CCOC(=O)C1=C(COCCNc2nc3cc(OC)c(OC)cc3c(=O)[nH]2)NC(C)=C(C(=O)OC)C1c1ccccc1Cl` (stereo not shown) [Example 17] was tested, and the IC50 was 13.1 nM. With `CCOC(=O)C1=C(COCCNc2cc(N3CCOCC3)ncn2)NC(C)=C(C(=O)OC)C1c1ccccc1Cl` (stereo not shown) [Example 86] the IC50 was 1.58 nM. Work on `CCOC(=O)C1=C(COCCNc2cc(=O)n(C)c(=O)n2C)NC(C)=C(C(=O)OC)C1c1ccccc1Cl` (stereo not shown) [Example 15] yielded an IC50 of 50.1 nM. With `CCOC(=O)C1=C(COCCNc2cc(N3CCCCC3)ncn2)NC(C)=C(C(=O)OC)C1c1ccccc1Cl` (stereo not shown) [Example 85] the IC50 was 5.01 nM. Molecule `CCOC(=O)C1=C(COCCNc2c[n+]([O-])ccn2)NC(C)=C(C(=O)OC)C1c1cccc(Cl)c1Cl` (stereo not shown) [Example 50, N-oxide of 4-(2,3-dichlorophenyl)-3-ethoxycarbonyl-5-methoxycarbonyl-6-methyl-2-[2-(pyrazin-2-ylamino)ethoxymethyl]-1,4-dihydropyridine] has an IC50 of 1.34 nM. Molecule `CCOC(=O)C1=C(COCCNc2nc(N)c3cc(OC)c(OC)cc3n2)NC(C)=C(C(=O)OC)C1c1cccc(Cl)c1Cl` (stereo not shown) [Example 48] has an IC50 of 29.5 nM. `CCOC(=O)C1=C(COCCNC2=NC(=O)CS2)NC(C)=C(C(=O)OC)C1c1cccc(C(F)(F)F)c1Cl` (stereo not shown) [Example 75] showed an IC50 of 7.08 nM. `CCOC(=O)C1=C(COCCNc2nc(C)cc(=O)[nH]2)NC(C)=C(C(=O)OC)C1c1cccc(Cl)c1Cl` (stereo not shown) [Example 42] was tested, and the IC50 was 4.16 nM. `CCOC(=O)C1=C(COCCNc2nc(N)c3cc(OC)c(OC)cc3n2)NC(C)=C(C(=O)OC)C1c1ccccc1Cl` (stereo not shown) [Example 34] showed an IC50 of 13.1 nM. For `CCOC(=O)C1=C(COCCNc2nccc(=O)[nH]2)NC(C)=C(C(=O)OC)C1c1cccc(Cl)c1Cl` (stereo not shown) [Example 39], the IC50 was 2.69 nM. `CCOC(=O)C1=C(COCCNC2=NCCN2)NC(C)=C(C(=O)OC)C1c1ccccc1Cl` (stereo not shown) [Example 21] gave an IC50 of 100 nM. `CCOC(=O)C1=C(COCCNc2n[s+]([O-])nc2N)NC(C)=C(C(=O)OC)C1c1ccccc1Cl` (stereo not shown) [Example 68] gave an IC50 of 13.1 nM. `CCOC(=O)C1=C(COCCNc2nc(C)cc(=O)[nH]2)NC(C)=C(C(=O)OC)C1c1ccccc1Cl` (stereo not shown) [Example 24] was tested, and the IC50 was 10 nM. With `CCOC(=O)C1=C(COCCNc2n[s+]([O-])nc2N)NC(C)=C(C(=O)OC)C1c1cccc(Cl)c1Cl` (stereo not shown) [Example 67, 3-{2-[(4-{2,3-Dichlorophenyl}-3-ethoxycarbonyl-5-methoxycarbonyl-6-methyl-1,4-dihydropyrid-2-yl)methoxy]ethylamino}-4-amino-1,2,5-thiadiazole-1-oxide hemihydrate] the IC50 was 19.9 nM. Work on `CCOC(=O)C1=C(COCCNc2nccnc2Cl)NC(C)=C(C(=O)OC)C1c1cccc(Cl)c1Cl` (stereo not shown) [Example 51] yielded an IC50 of 2.51 nM. `CCOC(=O)C1=C(COCCNc2ccnc(N)n2)NC(C)=C(C(=O)OC)C1c1cccc(Cl)c1Cl` (stereo not shown) [Example 40] showed an IC50 of 2.23 nM. For `CCOC(=O)C1=C(COCCNc2cc(NC)ncn2)NC(C)=C(C(=O)OC)C1c1cccc(Cl)c1Cl` (stereo not shown) [Example 83], the IC50 was 3.16 nM. Molecule `CCOC(=O)C1=C(COCCNc2noc(N)n2)NC(C)=C(C(=O)OC)C1c1cccc(C(F)(F)F)c1Cl` (stereo not shown) [Example 7] has an IC50 of 3.47 nM. For `CCOC(=O)C1=C(COCCNC2=NCC(=O)N2)NC(C)=C(C(=O)OC)C1c1ccccc1Cl` (stereo not shown) [Example 9], the IC50 was 12.6 nM. In the case of `CCOC(=O)C1=C(COCCNc2ncccc2C(N)=O)NC(C)=C(C(=O)OC)C1c1ccccc1Cl` (stereo not shown) [Example 25], the IC50 is reported as 45.7 nM. `CCOC(=O)C1=C(COCCNc2nccc(C#N)n2)NC(C)=C(C(=O)OC)C1c1ccccc1Cl` (stereo not shown) [Example 28] showed an IC50 of 13.1 nM.
